Reference: ChEMBL document CHEMBL3352537 (Bioorg Med Chem Lett, 2014)

Assays:
[1] = Antioxidant activity assessed as DPPH scavenging activity at 5 to 20 uM after 15 mins by UV-visible spectrophotometry; assay type: physicochemical
[2] = Antioxidant activity assessed as superoxide anion radical scavenging activity at 5 to 20 uM by xanthine/xanthine oxidase assay; assay type: physicochemical
[3] = biological target: Prostaglandin G/H synthase 1 (Homo sapiens) (UniProt P23219); assay: Inhibition of COX1 (unknown origin) using arachidonic acid as substrate at […] after 10 mins by luminometry
Chain of Prostaglandin G/H synthase 1 (Homo sapiens) (P23219 whole entry): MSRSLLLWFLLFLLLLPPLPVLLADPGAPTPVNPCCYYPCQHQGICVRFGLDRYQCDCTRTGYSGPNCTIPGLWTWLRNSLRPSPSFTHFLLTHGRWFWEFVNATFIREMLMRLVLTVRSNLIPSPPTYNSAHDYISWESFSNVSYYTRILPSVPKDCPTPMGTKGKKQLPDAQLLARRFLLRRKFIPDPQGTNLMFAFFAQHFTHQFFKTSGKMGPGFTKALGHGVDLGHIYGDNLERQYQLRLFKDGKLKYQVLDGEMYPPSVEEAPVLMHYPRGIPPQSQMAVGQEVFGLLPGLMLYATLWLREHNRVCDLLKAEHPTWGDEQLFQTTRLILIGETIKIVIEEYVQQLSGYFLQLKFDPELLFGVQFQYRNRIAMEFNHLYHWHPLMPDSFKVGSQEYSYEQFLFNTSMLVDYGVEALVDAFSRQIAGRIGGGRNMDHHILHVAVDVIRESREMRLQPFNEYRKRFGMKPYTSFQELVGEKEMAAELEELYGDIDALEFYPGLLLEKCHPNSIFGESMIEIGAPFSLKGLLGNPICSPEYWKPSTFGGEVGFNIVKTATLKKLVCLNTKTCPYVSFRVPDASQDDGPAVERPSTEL

[4] = biological target: Transcription factor p65 (Homo sapiens) (UniProt Q04206); assay: Inhibition of LPS-induced NF-kappaB p65 activation in human THP1 cells preincubated at 10 uM for 15 mins before LPS treatment measured after 16 hrs; assay type: cell-based; conditions: THP-1
Chain of Transcription factor p65 (Homo sapiens) (Q04206 whole entry): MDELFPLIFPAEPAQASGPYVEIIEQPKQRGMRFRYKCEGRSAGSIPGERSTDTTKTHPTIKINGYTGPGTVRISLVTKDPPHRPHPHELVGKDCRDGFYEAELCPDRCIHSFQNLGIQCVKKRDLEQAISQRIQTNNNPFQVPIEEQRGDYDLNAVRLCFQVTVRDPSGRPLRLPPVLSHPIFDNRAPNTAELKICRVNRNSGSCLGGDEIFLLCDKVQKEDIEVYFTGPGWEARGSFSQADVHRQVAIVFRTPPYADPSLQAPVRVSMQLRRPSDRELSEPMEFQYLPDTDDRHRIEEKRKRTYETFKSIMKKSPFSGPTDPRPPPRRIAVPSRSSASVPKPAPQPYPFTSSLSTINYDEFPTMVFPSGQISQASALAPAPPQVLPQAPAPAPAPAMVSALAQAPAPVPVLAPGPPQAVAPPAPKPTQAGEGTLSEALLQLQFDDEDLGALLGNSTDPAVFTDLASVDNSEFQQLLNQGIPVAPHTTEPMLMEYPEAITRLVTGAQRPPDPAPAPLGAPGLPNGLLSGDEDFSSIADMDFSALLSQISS

Row | Activity [1] | SMILES | Activity [2] [%] | inhibition [3] [%] | inhibition [4] [%]
1 | Active | O=C(O)c1ccc(O)cc1 [PARABEN] | – | – | –
2 | Active | COc1cc(C(=O)O)ccc1O [VANILLIC ACID] | – | – | –

Row | SMILES | Activity [1] | Activity [2] [%] | inhibition [3] [%] | inhibition [4] [%]
3 | Oc1ccc(CCNCc2ccc(O)c(O)c2)cc1 | Active | 33 | 51 | 23
